# Assay results: patent US20230339890A1, “AMINO ALCOHOL COMPOUNDS AND USES THEREOF” (Kineta, Inc., priority 2020, published 2023)
# Molecular target: Recombinant human CYP51A1 (lanosterol-14a-demethylase) (Homo sapiens (Human), UniProt Q16850)
# Test: Inhibition of CYP51A1, fluorescent substrate BOMCC
# Assay type: biochemical
# Conditions: recombinant human CYP51A1 coexpressed with CYP reductase in bacterial membranes, 8-point concentration-response, read-out: CYP51 IC50
# Description: Method: Recombinant human CYP51A1 (lanosterol-14a-demethylase) enzyme was coexpressed with CYP reductase in bacterial membranes and the fluorescent substrate BOMCC (a nonnatural substrate that causes increases in fluorescence upon CYP51A1-dependent demethylation) was used to obtain 8-point dose concentration-response curves for each compound.
# Sequence of Recombinant human CYP51A1 (lanosterol-14a-demethylase) (Q16850 whole entry): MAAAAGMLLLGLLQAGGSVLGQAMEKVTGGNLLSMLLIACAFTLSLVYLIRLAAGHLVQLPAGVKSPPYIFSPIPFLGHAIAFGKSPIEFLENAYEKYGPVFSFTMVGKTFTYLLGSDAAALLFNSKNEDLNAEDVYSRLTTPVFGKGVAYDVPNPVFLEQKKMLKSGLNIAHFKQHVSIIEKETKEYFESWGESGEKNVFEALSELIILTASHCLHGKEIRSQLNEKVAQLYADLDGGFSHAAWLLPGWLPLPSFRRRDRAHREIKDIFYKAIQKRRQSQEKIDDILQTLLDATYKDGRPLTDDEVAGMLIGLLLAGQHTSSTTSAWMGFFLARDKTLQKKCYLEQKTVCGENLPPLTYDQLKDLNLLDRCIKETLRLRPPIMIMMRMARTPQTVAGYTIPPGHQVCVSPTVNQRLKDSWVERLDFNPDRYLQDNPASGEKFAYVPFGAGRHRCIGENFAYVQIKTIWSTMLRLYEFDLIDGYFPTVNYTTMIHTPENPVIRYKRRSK
row,SMILES,IC50 [nM]
1,"CCCN(CC(O)c1cccnn1)C(=O)Cc1ccc(Cl)c(Cl)c1 (single isomer, unassigned) [compound 35, 2-(3,4-dichlorophenyl)-N-[2-hydroxy-2-pyridazin-3-yl-ethyl]-N-propyl-acetamide]",100 to 1000
2,"CCCN(CC(O)c1cccnn1)C(=O)Cc1ccc(Cl)c(Cl)c1 (single isomer, unassigned) [compound 36, 2-(3,4-dichlorophenyl)-N-[2-hydroxy-2-pyridazin-3-yl-ethyl]-N-propyl-acetamide]",> 1000
3,"CCCN(CC(O)c1cnccn1)C(=O)C1Cc2cc(Cl)c(Cl)cc2C1 (single isomer, unassigned) [compound 41, 5,6-dichloro-N-(2-hydroxy-2-pyrazin-2-yl-ethyl)-N-propyl-indane-2-carboxamide]",> 1000
4,"CCCN(CC(O)c1cccnn1)C(=O)Cc1ccc(C#N)c(Cl)c1 (single isomer, unassigned) [compound 53, 2-(3-chloro-4-cyanophenyl)-N-(2-hydroxy-2-pyridazin-3-yl-ethyl)-N-propyl-acetamide]",100 to 1000
5,"CCCN(CC(O)c1cccnn1)C(=O)Cc1ccc(C#N)c(Cl)c1 (single isomer, unassigned) [compound 54, 2-(3-chloro-4-cyanophenyl)-N-(2-hydroxy-2-pyridazin-3-yl-ethyl)-N-propyl-acetamide]",> 1000
6,"O=C(Cc1ccc(C(F)(F)F)nc1)N(CC(O)c1cccnn1)C1CCC1 (single isomer, unassigned) [compound 61, N-cyclobutyl-N-(2-hydroxy-2-pyridazin-3-yl-ethyl)-2-[6-(trifluoromethyl)-3-pyridyl]acetamide]",100 to 1000
7,"O=C(Cc1ccc(C(F)(F)F)nc1)N(CC(O)c1cccnn1)C1CCC1 (single isomer, unassigned) [compound 62, N-cyclobutyl-N-(2-hydroxy-2-pyridazin-3-yl-ethyl)-2-[6-(trifluoromethyl)-3-pyridyl]acetamide]",> 1000
8,"CCCN(CC(O)c1cccnn1)C(=O)Cc1ccc(C(F)(F)F)nc1 (single isomer, unassigned) [compound 68, N-[2-hydroxy-2-pyridazin-3-yl-ethyl]-N-propyl-2-[6-(trifluoromethyl)-3-pyridyl]acetamide]",> 1000
9,CCC(=O)N(CCc1ccc2ccccc2c1)CC(O)c1cccnc1 (centres unmarked) [compound 3],100 to 1000
10,CCC(=O)N(CCc1ccc(Cl)c(Cl)c1)CC(O)c1cccnc1 (centres unmarked) [compound 4],100 to 1000
11,"CCCN(CC(O)c1cccnc1)C(=O)Cc1ccc(OC)c(OC)c1 (centres unmarked) [compound 5, 2-(3,4-dimethoxyphenyl)-N-[2-hydroxy-2-(3-pyridyl)ethyl]-N-propyl-acetamide]",> 1000
12,"CC1(N(CC(O)c2cccnc2)C(=O)Cc2ccc(Cl)c(Cl)c2)CC1 (centres unmarked) [compound 9, 2-(3,4-dichlorophenyl)-N-[2-hydroxy-2-(3-pyridyl)ethyl]-N-(1-methylcyclopropyl)a cetamide]",100 to 1000
13,"CCCN(CC(O)c1cccnc1)S(=O)(=O)Cc1ccc(Cl)c(Cl)c1 (centres unmarked) [compound 10, 1-(3,4-dichlorophenyl)-N-[2-hydroxy-2-(3-pyridyl)ethyl]-N-propyl-methanesulfonamide]",> 1000
14,"CCCN(C[C@@H](O)c1cccnc1)C(=O)Cc1ccc(OC)c(Cl)c1 [compound 12, 2-(3-chloro-4-methoxy-phenyl)-N-[(2S)-2-hydroxy-2-(3-pyridyl)ethyl]-N-propyl-acetamide]",100 to 1000
15,"CCCN(CC(O)c1cncnc1)C(=O)Cc1ccc(Cl)c(Cl)c1 (centres unmarked) [compound 13, 2-(3,4-dichlorophenyl)-N-(2-hydroxy-2-pyrimidin-5-yl-ethyl)-N-propyl-acetamide]",> 1000
16,"CCCN(C[C@@H](O)c1cccnc1)C(=O)Cc1ccc(Cl)cn1 [compound 14, 2-(5-chloro-2-pyridyl)-N-[(2S)-2-hydroxy-2-(3-pyridyl)ethyl]-N-propyl-acetamide]",> 1000
17,"CCCN(C[C@@H](O)c1cccnc1)C(=O)Cc1ccc(C)nc1 [compound 15, N-[(2S)-2-hydroxy-2-(3-pyridyl)ethyl]-2-(6-methyl-3-pyridyl)-N-propyl-acetamide]",> 1000
18,CCCN(CC(O)c1ccnnc1)C(=O)Cc1ccc(Cl)c(Cl)c1 (centres unmarked) [compound 19],> 1000
19,"CCN(C[C@@H](O)c1cccnc1)C(=O)Cc1ccc(Cl)c(Cl)c1 [compound 20, 2-(3,4-dichlorophenyl) -N-ethyl-N-[(2S)-2-hydroxy-2-(3-pyridyl)ethyl]ac etamide]",100 to 1000
20,"CCC(=O)N(C[C@@H](O)c1cccnc1)C1Cc2cc(Cl)c(Cl)cc2C1 [compound 22, N-(5,6-dichloroindan-2-yl)-N-[(2S)-2-hydroxy-2-(3-pyridyl)ethyl]propanamide]",100 to 1000
21,"CCCN(C[C@@H](O)c1cccnc1)C(=O)Cc1ccc(Cl)c(C#N)c1 [compound 24, 2-(4-chloro-3-cyano-phenyl)-N-[(2S)-2-hydroxy-2-(3-pyridyl)ethyl]-N-propyl-acetamide]",100 to 1000
22,"O=C(Cc1ccc(Cl)c(Cl)c1)N(CC1COC1)C[C@@H](O)c1cccnc1 [compound 25, 2-(3,4-dichlorophenyl) -N-[(2S)-2-hydroxy-2-(3-pyridyl)ethyl]-N-(oxetan-3-ylmethyl)acetamide]",100 to 1000
23,"O=C(Cc1ccc(Cl)c(Cl)c1)N(C[C@@H](O)c1cccnc1)C1COC1 [compound 26, 2-(3,4-dichlorophenyl) -N-[(2S)-2-hydroxy-2-(3-pyridyl)ethyl]-N-(oxetan-3-yl)acetamide]",100 to 1000
24,"COC(=O)N(CCc1ccc(C(F)(F)F)nc1)CC(O)c1cccnc1 (centres unmarked) [compound 28, methyl N-[2-hydroxy-2-(3-pyridyl)ethyl]-N-[2-[6-(trifluoromethyl)-3-pyridyl]ethyl]carbamate]",> 1000
25,"CC(C)N(C[C@@H](O)c1cccnc1)C(=O)Nc1ccc(Cl)c(Cl)c1 [compound 29, 3-(3,4-dichlorophenyl)-1-[(2S)-2-hydroxy-2-(3-pyridyl)ethyl]-1-isopropyl-urea]",> 1000
26,"CCCN(CC(O)c1cccnc1)C(=O)Cc1ccc(Cl)cc1F (centres unmarked) [compound 31, 2-(4-chloro-2-fluoro-phenyl)-N-[2-hydroxy-2-(3-pyridyl)ethyl]-N-propyl-acetamide]",≤ 100

# Next, values leading:
row,IC50 [nM],SMILES
1,≤ 100,"CCCN(CC(O)c1cnccn1)C(=O)C1Cc2cc(Cl)c(Cl)cc2C1 (single isomer, unassigned) [compound 42, 5,6-dichloro-N-(2-hydroxy-2-pyrazin-2-yl-ethyl)-N-propyl-indane-2-carboxamide]"
2,≤ 100,"CCCN(CC(O)c1cccnn1)C(=O)Cc1ccc(C(F)(F)F)nc1 (single isomer, unassigned) [compound 69, N-[2-hydroxy-2-pyridazin-3-yl-ethyl]-N-propyl-2-[6-(trifluoromethyl)-3-pyridyl]acetamide]"
3,≤ 100,"Cc1ccncc1C(O)CN(CC1COC1)C(=O)Cc1ccc(C(F)(F)F)nc1 (single isomer, unassigned) [compound 88, N-[2-hydroxy-2-(4-methyl-3-pyridyl)ethyl] -N-(oxetan-3-ylmethyl)-2-[6-(trifluoromethyl)-3-pyridyl]acetamide]"
4,≤ 100,"CCCN(CC(O)c1cccnc1)C(=O)Cc1ccc(Cl)c(Cl)c1 (centres unmarked) [compound 1, 2-(3,4-dichlorophenyl)-N-[2-hydroxy-2-(3-pyridyl)ethyl]-N-propyl-acetamide]"
5,≤ 100,"CCCN(CC(O)c1cccnc1)C(=O)Cc1ccc2ccccc2c1 (centres unmarked) [compound 2, N-[2-hydroxy-2-(3-pyridyl)ethyl]-2-(2-naphthyl)-N-propyl-acetamide]"
6,≤ 100,"CCCN(C[C@H](O)c1cccnc1)C(=O)Cc1ccc(Cl)c(Cl)c1 [compound 6, 2-(3,4-dichlorophenyl)-N-[(2R)-2-hydroxy-2-(3-pyridyl)ethyl]-N-propyl-acetamide]"
7,≤ 100,"CCCN(C[C@@H](O)c1cccnc1)C(=O)Cc1ccc2ccccc2c1 [compound 7, N-[(2S)-2-hydroxy-2-(3-pyridyl)ethyl]-2-(2-naphthyl)-N-propyl-acetamide]"
8,≤ 100,"CCCN(C[C@@H](O)c1cccnc1)C(=O)Cc1ccc(Cl)c(Cl)c1 [compound 8, 2-(3,4-dichlorophenyl)-N-[(2S)-2-hydroxy-2-(3-pyridyl)ethyl]-N-propyl-acetamide]"
9,≤ 100,CCCN(C[C@@H](O)c1cccnc1)C(=O)C1Cc2cc(Cl)c(Cl)cc2C1 [compound 11]
10,≤ 100,"CCCN(C[C@@H](O)c1cccnc1)C(=O)Cc1ccc(C)c(Cl)c1 [compound 16, 2-(3-chloro-4-methyl-phenyl)-N-[(2S)-2-hydroxy-2-(3-pyridyl)ethyl]-N-propyl-acetamide]"
11,≤ 100,"CCCN(C[C@@H](O)c1cccnc1)C(=O)Cc1ccc(C(F)(F)F)nc1 [compound 17, N-[(2S)-2-hydroxy-2-(3-pyridyl)ethyl]-N-propyl-2-[6-(trifluoromethyl)-3-pyridyl]acetamide]"
12,≤ 100,"CC(C)N(C[C@@H](O)c1cccnc1)C(=O)Cc1ccc(Cl)c(Cl)c1 [compound 18, 2-(3,4-dichlorophenyl) -N-[(2S)-2-hydroxy-2-(3-pyridyl)ethyl]-N-isopropyl-acetamide]"
13,≤ 100,"CCCN(C[C@@H](O)c1cccnc1)C(=O)Cc1ccc(OC(F)(F)F)c(Cl)c1 [compound 21, 2-[3-chloro-4-(trifluoromethoxy)phenyl]-N-[(2S)-2-hydroxy-2-(3-pyridyl)ethyl]-N-propyl-acetamide]"
14,≤ 100,"CCC(=O)N(C[C@H](O)c1cccnc1)C1Cc2cc(Cl)c(Cl)cc2C1 [compound 23, N-(5,6-dichloroindan-2-yl)-N-[(2R)-2-hydroxy-2-(3-pyridyl)ethyl]propanamide]"
15,≤ 100,"CC1(CN(C[C@@H](O)c2cccnc2)C(=O)Cc2ccc(Cl)c(Cl)c2)CC1 [compound 27, 2-(3,4-dichlorophenyl) -N-[(2S)-2-hydroxy-2-(3-pyridyl)ethyl]-N-[(1-methylcyclopropyl)methyl]acetamide]"
